Measured values: patent US9321762B2, “Quinazoline compounds, method for preparing the same and use thereof” (DEVELOPMENT CENTER FOR BIOTECHNOLOGY, priority 2013, dated 2016)
Where two headings read alike, the source gives them in different places.

Key:
B-Raf kinase = target: T1, B-Raf kinase (Homo sapiens, UniProt P15056); experiment: B-Raf kinase assay ([33P] incorporation into MEK1(K97R)); type: biochemical; conditions: class symbols; 8 μM ATP; read-out: IC50 against B-Raf kinase
T1 construct: purchased Upstate Biotechnology
Experimental: (§1) Inhibition of kinase activity by a test compound disclosed herein was estimated by quantifying the amount of [^33P] incorporation of a substrate in the presence of the test compound. Standard assay conditions were 5 ng of recombinant B-Raf kinase (Upstate Biotechnology) with 500 ng MEK1(K97R) in assay buffer (8 μM ATP, 0.5 μCi [^33P]ATP (specific activity 3000 Ci/mmol, PerkinElmer), 50 mM Tris/HCl (pH7.5), and 1 mM EGTA, 1 mM Na3VO4, 1% 2-mercaptoethanol, 0.1% Brij 35, and 0.2 mg/ml BSA) in a final volume of 25 μL. Reactions were incubated at 30° C. for 30 min and stopped by adding 3% phosphoric acid, harvested onto a 96-well GF/B UniFilter (PerkinElmer) using a unifilter harvester (PerkinElmer), and counted with a TopCount microplate scintillation counter (PerkinElmer). The IC50 values of inhibitors were determined after carrying out assays at 3-fold serially diluted concentrations of each compound in duplication. The results were analyzed using linear regression software (GraphPad Prism 4; GraphPad Software Inc.).

B-Raf(V600E) kinase = target: T2, B-Raf(V600E) kinase (Homo sapiens, UniProt P15056, V600E); experiment: B-Raf(V600E) kinase assay ([33P] incorporation into MEK1(K97R)); type: biochemical; conditions: class symbols; 8 μM ATP; read-out: IC50 against B-Raf(V600E) kinase
T2 construct: purchased Upstate Biotechnology
Experimental: as §1, with “B-Raf(V600E)” for “B-Raf”, “MEK1 (K97R)” for “MEK1(K97R)”, “[^33P] ATP” for “[^33P]ATP”, “BSA), and the test compound (diluted with 4% DMSO) or DMSO alone (as a control)” for “BSA)”

C-Raf kinase = target: T3, C-Raf kinase (Homo sapiens, UniProt P04049); experiment: C-Raf kinase assay ([33P] incorporation into MEK1(K97R)); type: biochemical; conditions: class symbols; 8 μM ATP; read-out: IC50 against C-Raf kinase
T3 construct: purchased Upstate Biotechnology
Experimental: as §1, with “were 2” for “were 5”, “recombinant C-Raf” for “recombinant B-Raf”, “ng MEK1 (K97R)” for “ng MEK1(K97R)”, “μCi [^33P] ATP” for “μCi [^33P]ATP”, “mg/ml BSA), and the test compound (diluted with 4% DMSO) or DMSO alone (as a control)” for “mg/ml BSA)”

VEGFR2 kinase = target: T4, VEGFR2 kinase (Homo sapiens, UniProt P35968); experiment: VEGFR2 radiometric kinase assay; type: biochemical; conditions: given as bound; 100 μM ATP; read-out: Inhibition activity, IC50 VEGFR2
T4 construct: VEGFR2 kinase domain alone, Millipore; purchased Millipore
Experimental: (§2) The inhibitory activity against VEGFR2 or EGFR was determined by radiometric kinase assay. The experimental condition for VEGFR2 kinase assay was 6.25 ng of recombinant VEGFR2 kinase (VEGFR2 kinase domain alone, Millipore), 5 μg of substrate Poly(Glu-Tyr) (4:1, Sigma), kinase reaction buffer (20 mM MOPS pH 7.0, 1 mM EDTA, 5% glycerol, 0.01% Brij-35, 0.1% β-mercaptoethanol, 1 mg/mL BSA, 100 μM ATP, and 0.1 μCi per well [^33P] ATP (specific activity 3000 Ci/mmol, PerkinElmer)), and the test compound (diluted with 4% DMSO) or DMSO alone (as a control) in a final volume of 25 μL. Reactions were incubated at 30° C. for 30 min and stopped by adding 3% phosphoric acid, harvested onto a 96-well GF/B UniFilter (PerkinElmer) using a unifilter harvester (PerkinElmer), and counted with a TopCount microplate scintillation counter (PerkinElmer).
(§3) Results of inhibition activity against VEGFR2 and EGFR kinases by the selected compounds, which have IC50 values on B-Raf kinase <300 nM, are summarized in Table 6.

EGFR kinase = target: T5, EGFR kinase (Homo sapiens, UniProt P00533); experiment: EGFR radiometric kinase assay; type: biochemical; conditions: 100 μM ATP, read-out: Inhibition activity, IC50 EGFR
T5 construct: EGFR kinase domain alone, Millipore; purchased Millipore
Experimental: as §2
The experimental condition for EGFR kinase assay was 25 ng of EGFR kinase (EGFR kinase domain alone, Millipore), 3 μg of the substrate poly(Glu-Tyr), (Sigma), kinase reaction buffer (10 mM MOPS pH 7.0, 0.3 mM EDTA, 0.5% glycerol, 0.001% Brij-35, 10 mM MnCl2, 0.1 mg/ml BSA, 100 μM ATP, and 0.1 μCi per well [^33P]ATP (specific activity 3000 Ci/mmol, PerkinElmer)), and the test compound (diluted with 4% DMSO) or DMSO (as a control) in a final volume of 25 μL. Reactions were incubated at 30° C. for 30 min and stopped by adding 3% phosphoric acid, harvested onto a 96-well GF/B UniFilter (PerkinElmer) using a unifilter harvester (PerkinElmer), and counted with a TopCount microplate scintillation counter (PerkinElmer).
as §3

[1] = system: A375 melanoma cells and COLO205 colon cancer cells; experiment: Cell proliferation assay (CellTiter-96); type: cell-based; conditions: Homo sapiens; A375 or COLO205, 72 hours treatment; read-out: Cytotoxicity IC50 for A375 or COLO205
Experimental: The anti-proliferative activities of compounds of formula (I) against B-Raf(V600E) mutant human cancer cell lines, A375 melanoma cells and COLO205 colon cancer cells, were measured using the CellTiter™-96 assay kit (Promega) following the manufacturer's instructions. In brief, the cells were maintained in DMEM containing 10% FCS and incubated at 37° C. in 5% CO2 atmosphere. Cells were plated at a density of 2,000 cells/well on a 96-well plate and incubated for 24 h. Then, these cells were treated with different concentrations of the test compounds and incubated for another 72 hours. At the end of the incubation, CellTiter™-96 Aqueous One Solution Reagent (Promega) was added and incubated for another 4.0 hours. Cell viability was determined by measuring absorbance at 490 nm using EMax® microplate reader (Molecular Devices). Data were processed and analyzed using GraphPad Prism.

T3 sequence (P04049 whole entry): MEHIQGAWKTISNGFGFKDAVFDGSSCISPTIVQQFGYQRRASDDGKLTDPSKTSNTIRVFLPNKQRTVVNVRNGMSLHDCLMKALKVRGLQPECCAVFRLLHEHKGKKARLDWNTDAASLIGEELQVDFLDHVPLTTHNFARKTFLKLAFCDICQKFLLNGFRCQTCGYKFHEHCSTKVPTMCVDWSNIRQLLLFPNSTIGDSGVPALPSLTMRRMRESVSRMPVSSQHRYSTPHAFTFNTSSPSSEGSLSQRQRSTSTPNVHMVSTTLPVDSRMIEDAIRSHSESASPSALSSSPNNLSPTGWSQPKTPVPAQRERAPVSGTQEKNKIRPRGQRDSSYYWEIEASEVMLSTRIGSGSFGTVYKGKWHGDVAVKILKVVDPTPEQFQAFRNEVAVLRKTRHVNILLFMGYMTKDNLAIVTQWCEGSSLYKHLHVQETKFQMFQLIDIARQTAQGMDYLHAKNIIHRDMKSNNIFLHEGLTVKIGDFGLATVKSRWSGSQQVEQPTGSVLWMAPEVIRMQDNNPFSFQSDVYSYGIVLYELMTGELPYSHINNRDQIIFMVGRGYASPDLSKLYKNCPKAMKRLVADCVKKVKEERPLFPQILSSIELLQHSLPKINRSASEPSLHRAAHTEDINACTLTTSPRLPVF
T1 sequence (P15056 whole entry): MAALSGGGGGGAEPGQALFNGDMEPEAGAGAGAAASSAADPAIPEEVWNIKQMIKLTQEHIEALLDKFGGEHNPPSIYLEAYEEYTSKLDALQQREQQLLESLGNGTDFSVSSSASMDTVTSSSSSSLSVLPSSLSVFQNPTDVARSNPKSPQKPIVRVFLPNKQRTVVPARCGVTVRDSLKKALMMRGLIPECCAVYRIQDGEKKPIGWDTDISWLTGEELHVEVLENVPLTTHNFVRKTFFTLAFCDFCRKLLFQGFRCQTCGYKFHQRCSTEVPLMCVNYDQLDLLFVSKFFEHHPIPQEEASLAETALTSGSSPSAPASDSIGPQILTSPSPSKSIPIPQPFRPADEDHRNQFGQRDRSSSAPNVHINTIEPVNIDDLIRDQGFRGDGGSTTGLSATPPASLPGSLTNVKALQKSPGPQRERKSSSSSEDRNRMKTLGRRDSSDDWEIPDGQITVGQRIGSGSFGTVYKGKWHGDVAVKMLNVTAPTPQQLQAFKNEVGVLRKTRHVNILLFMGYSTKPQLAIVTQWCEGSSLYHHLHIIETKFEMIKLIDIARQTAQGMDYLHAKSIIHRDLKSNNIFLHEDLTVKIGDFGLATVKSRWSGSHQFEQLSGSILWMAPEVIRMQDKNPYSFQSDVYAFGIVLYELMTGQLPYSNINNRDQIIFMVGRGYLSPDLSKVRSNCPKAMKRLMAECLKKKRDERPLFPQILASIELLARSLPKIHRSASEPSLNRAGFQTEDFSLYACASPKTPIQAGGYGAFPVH
T2 sequence (P15056 whole entry V600E): as the sequence (P15056 whole entry) above, with V600E counted along it
T5 sequence (P00533 712-979 limits assumed): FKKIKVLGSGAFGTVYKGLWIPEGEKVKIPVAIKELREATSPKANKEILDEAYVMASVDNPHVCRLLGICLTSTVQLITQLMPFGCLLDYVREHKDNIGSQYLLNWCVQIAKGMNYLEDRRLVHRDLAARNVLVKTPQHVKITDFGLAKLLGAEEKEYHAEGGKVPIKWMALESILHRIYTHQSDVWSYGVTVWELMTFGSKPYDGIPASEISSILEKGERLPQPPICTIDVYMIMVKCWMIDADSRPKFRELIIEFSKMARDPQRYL
T4 sequence (P35968 834-1162 limits assumed): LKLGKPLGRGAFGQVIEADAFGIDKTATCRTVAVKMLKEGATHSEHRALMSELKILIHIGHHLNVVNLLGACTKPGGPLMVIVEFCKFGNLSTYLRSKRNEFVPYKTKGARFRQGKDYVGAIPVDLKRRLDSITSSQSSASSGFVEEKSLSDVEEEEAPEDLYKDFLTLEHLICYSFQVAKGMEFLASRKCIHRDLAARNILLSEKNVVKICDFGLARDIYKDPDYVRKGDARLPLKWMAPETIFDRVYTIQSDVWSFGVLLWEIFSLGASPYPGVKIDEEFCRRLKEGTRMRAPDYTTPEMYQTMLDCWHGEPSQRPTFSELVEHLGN

Structure (SMILES) | IC50 (B-Raf kinase) [µM] | IC50 (B-Raf(V600E) kinase) [µM] | IC50 (C-Raf kinase) [µM] | IC50 (VEGFR2 kinase) [µM] | IC50 (EGFR kinase; given as bound) [µM] | IC50 [1] [µM] | IC50 (EGFR kinase; class symbols) [µM]
CCCS(=O)(=O)Nc1ccc(F)c(Nc2ncnc3ccc(-c4cncc(F)c4)cc23)c1F [compound 46, N-(2,4-difluoro-3-(6-(5-fluoropyridin-3-yl)quinazolin-4-ylamino)phenyl)propane-1-sulfonamide] | < 0.3 | < 0.3 | < 0.3 | > 3 | > 3 | < 2 | –
CCCS(=O)(=O)Nc1ccc(F)c(Nc2ncnc3ccc(-c4ccncc4)cc23)c1F [compound 12, N-(2,4-difluoro-3-(6-(pyridin-4-yl)-quinazolin-4-ylamino)phenyl)propane-1-sulfonamide] | < 0.3 | < 0.3 | < 0.3 | > 3 | – | < 2 | 0.3 to 1
CCCS(=O)(=O)Nc1ccc(F)c(Nc2ccnc3ccc(-c4ccncc4)cc23)c1F [compound 14, N-(2,4-difluoro-3-(6-(pyridin-4-yl)quinolin-4-ylamino)phenyl)propane-1-sulfonamide] | < 0.3 | < 0.3 | < 0.3 | > 3 | – | < 2 | 1 to 3
CCCS(=O)(=O)Nc1ccc(F)c(Nc2ncnc3ccc(-c4ccc(OC)nc4)cc23)c1F [compound 27, N-(2,4-difluoro-3-(6-(6-methoxypyridin-3-yl)quinazolin-4-ylamino)phenyl)propane-1-sulfonamide] | 0.3 to 1 | < 0.3 | < 0.3 | > 3 | – | < 2 | 1 to 3
CCCS(=O)(=O)Nc1ccc(F)c(Nc2ncnc3cc(OC)c(-c4cccnc4F)cc23)c1F [compound 28, N-(2,4-difluoro-3-(6-(2-fluoropyridin-3-yl)-7-methoxyquinazolin-4-ylamino)phenyl)propane-1-sulfonamide] | < 0.3 | < 0.3 | < 0.3 | > 3 | – | < 2 | 0.3 to 1
CCCS(=O)(=O)Nc1ccc(F)c(Nc2ncnc3ccc(-c4cccc(OC)n4)cc23)c1F [compound 37, N-(2,4-difluoro-3-(6-(6-methoxypyridin-2-yl)quinazolin-4-ylamino)phenyl)propane-1-sulfonamide] | < 0.3 | < 0.3 | 0.3 to 1 | > 3 | – | < 2 | 0.3 to 1
CCCS(=O)(=O)Nc1ccc(F)c(Nc2ncnc3ccc(-c4ccc(=O)[nH]c4)cc23)c1F [compound 32, N-(2,4-difluoro-3-(6-(6-oxo-1,6-dihydropyridin-3-yl)quinazolin-4-ylamino)phenyl)propane-1-sulfonamide] | < 0.3 | < 0.3 | 0.3 to 1 | > 3 | > 3 | < 2 | –
CCCS(=O)(=O)Nc1ccc(F)c(Nc2ncnc3ccc(-c4cnc(OC)c([N+](=O)[O-])c4)cc23)c1F [compound 58, N-(2,4-difluoro-3-(6-(6-methoxy-5-nitropyridin-3-yl)quinazolin-4-ylamino)phenyl)propane-1-sulfonamide] | < 0.3 | < 0.3 | < 0.3 | > 3 | > 3 | < 2 | –
CCCS(=O)(=O)Nc1ccc(F)c(Nc2ncnc3ccc(-c4ccc(F)nc4)cc23)c1F [compound 3, N-(2,4-difluoro-3-(6-(6-fluoropyridin-3-yl)-quinazolin-4-ylamino)phenyl)propane-1-sulfonamide] | < 0.3 | < 0.3 | < 0.3 | > 3 | > 3 | < 2 | –
CCCS(=O)(=O)Nc1ccc(F)c(Nc2ncnc3cc(F)c(-c4cccnc4F)cc23)c1F [compound 7, N-(2,4-difluoro-3-(7-fluoro-6-(2-fluoropyridin-3-yl)quinazolin-4-ylamino)phenyl)propane-1-sulfonamide] | < 0.3 | < 0.3 | < 0.3 | > 3 | > 3 | < 2 | –
CCCCS(=O)(=O)Nc1ccc(F)c(Nc2ncnc3ccc(-c4cccnc4F)cc23)c1F [compound 18, N-(2,4-difluoro-3-(6-(2-fluoropyridin-3-yl)quinazolin-4-ylamino)phenyl)butane-1-sulfonamide] | < 0.3 | < 0.3 | < 0.3 | > 3 | > 3 | < 2 | –
CCCS(=O)(=O)Nc1ccc(F)c(Nc2ncnc3cc(OCCOC)c(-c4cccnc4F)cc23)c1F [compound 29, N-(2,4-difluoro-3-(6-(2-fluoropyridin-3-yl)-7-(2-methoxyethoxy)quinazolin-4-ylamino)phenyl)propane-1-sulfonamide] | < 0.3 | < 0.3 | < 0.3 | > 3 | – | < 2 | 0.3 to 1
